≈ marks a conversion by molar mass, not a printed value. Where “and” joins values, the source holds several entries; their conditions need not be identical. Identical values can stand only once. Like-named read-outs stand apart in the source and are kept apart here.
Assays:
HCMV = assay: Antiviral activity, HCMV (HFF); format: cell-based; settings: Human betaherpesvirus 5
HepG2 cells [1] = assay: Cellular DNA synthesis, [3H]-thymidine incorporation; settings: read-out: CC50 DNA ([3H]Thymidine); 50% reduction of thymidine incorporation into cellular DNA
[2] = test system: MT-4 human T-lymphocyte cells; settings: human
in vitro = settings: hamster
[3] = test system: MDCK, canine kidney cells; assay: Cytotoxicity, MDCK; format: cell-based
DENV-2 = assay: microbe, parasite or virus in culture; format: cell-based; settings: Dengue virus, DENV2, read-out: composite EC50 range
BVDV = format: cell-based, bovine viral diarrhea virus; settings: for EC4 log: MDBK
[4] = test system: A549, Human lung carcinoma cells; assay: Cytotoxicity, A549; format: cell-based; settings: Adenovirus type 1 line
West Nile Virus = assay: microbe, parasite or virus in culture; format: cell-based; settings: BHK
CVB-2 = assay: organism not typed; format: cell-based, Coxsackie B-2 virus; settings: read-out: EC50 CVB-2
Influenza A/H3N2 = assay: Antiviral activity, Influenza A/H3N2 (MDCK); format: cell-based; settings: Influenza A virus
HBV = format: cell-based
Sb-1 = assay: organism not typed; format: cell-based, Sabin type 1 poliomyelitis virus
[5] = test system: BVDV New York-1 (NY-1) strain; assay: MDBK cells persistently infected with BVDV strain New York-1, virus titer; format: cell-based, bovine viral diarrhea virus; settings: 8 μM alone, after one passage
VEE = assay: microbe, parasite or virus in culture; format: cell-based; settings: Venezuelan equine encephalitis virus, Vero
REO-1 = assay: microbe, parasite or virus in culture; format: cell-based, double-stranded RNA Reovirus; settings: Reovirus sp., read-out: REO
Punta Toro A = assay: organism not typed; format: cell-based; settings: LLC-MK2
Adenovirus type 1 = assay: Antiviral activity, Adenovirus type 1 (A549); format: cell-based; settings: Human mastadenovirus C
HepG2 cells [6] = assay: Transmission electron microscopy of mitochondrial ultrastructure
HIV = format: cell-based
MCMV = assay: Antiviral activity, MCMV (MEF); format: cell-based
Polio Virus Sb-1 = assay: organism not typed; format: cell-based; settings: Vero
HepG2 cells [7] = assay: Mitochondrial DNA content; format: cell-based, human
Description: To assess the potential of mCyd to produce mitochondrial toxicity, several in vitro studies were conducted using the human hepatoma cell lines HepG2 or Huh7.
The significance of this finding is unclear, particularly since mCyd is unlikely to attain a plasma concentration of 50 μM in the clinic. For comparison, lactic acid production increases by 100% over control cells in cells treated with 10 μM FIAU (Cui L, Yoon, et al. J. Clin. Invest. 1995; 95:555-563).

BVDV RNA = assay: Intracellular BVDV RNA by Real Time RT-PCR in de novo-infected MDBK cells; format: cell-based, bovine viral diarrhea virus
[8] = Stability in human plasma; settings: 37° C.
HepG2 cells [9] = assay: Incorporation of drug into cellular RNA and DNA; settings: 10 μM [3H] drug, 30 hours
HepG2 cells [10] = assay: Cellular RNA synthesis, [3H]-uridine incorporation; settings: read-out: CC50 RNA ([3H]Uridine); 50% reduction of uridine incorporation into cellular RNA
[11] = test system: KB, human nasopharyngeal carcinoma; assay: Cytotoxicity, KB; format: cell-based
HSV-1 = assay: Antiviral activity, HSV-1 (HFF); format: cell-based; settings: Human alphaherpesvirus 1
Rhinovirus type 2 = assay: microbe, parasite or virus in culture; format: cell-based; settings: Enterovirus
HepG2 cells [12] = assay: Mitochondria toxicity assay, lactic acid production, HepG2; settings: for L-Lactate (% of Control): 4 days
RSV type A = assay: Antiviral activity, RSV type A (MA-104); format: cell-based; settings: human respiratory syncytial virus, MA104
Huh7 cells = assay: Mitochondria toxicity assay, lactic acid production, Huh7; settings: 4 days
[13] = test system: MA-104, Rhesus monkey kidney cells; assay: Cytotoxicity, MA-104; settings: Parainfluenza type 3 line
[14] = test system: BVDV (strain I-N-dIns), noncytopathic; format: cell-based, bovine viral diarrhea virus
[15] = test system: human cytidine/deoxycytidine deaminase enzymes; settings: 37° C.
Influenza A/H1N1 = assay: Antiviral activity, Influenza A/H1N1 (MDCK); format: cell-based; settings: Influenza A virus

In the case of CC1(O)C(O)C(CO)OC1n1ccc(N)nc1=O (stereo not shown) [mCyd, 4-Amino-1-(3,4-dihydroxy-5-hydroxymethyl-3-methyl-tetrahydro-furan-2-yl)-1H-pyrimidine-2-one], the EC50 (HCMV) is reported as 9.9 to 15.6 µg/mL (≈ 38.5 to 60.6 µM), the CC50 (HepG2 cells [1]) is reported as 112 ± 34.5 µM and the CC50 [2] is reported as 34 µM. It also gave a CC50 (in vitro) greater than 100 µM, a CC50 ([3]; Influenza A/H1N1 line) greater than 200 µM and a CC50 ([3]; Influenza A/H3N2 line) of 45 to 65 µM. It also gave a CC50 ([3]; Influenza B line) of 55 to 140 µM, an EC50 (DENV-2) of 59 to 95 µM and an EC4 log (BVDV; BVDV I-N-dIns ncp (recombinant)) of 7.14 μM. For the same compound, the EC4 log (BVDV; BVDV I-NADL cp (recombinant)) was 8.22 μM, the “suppression of de novo BVDV production” value (BVDV; subcytotoxic concentrations (circa 20 μM)) was “up to 6 logs” and the CC50 [4] was greater than 200 µM. It also gave an EC50 (West Nile Virus) of 63 to 97 µM, an EC50 (CVB-2) of 11 µM and an EC50 (Influenza A/H3N2) greater than 20 µM. For the same compound, the “activity against HBV” value (HBV) was “no activity”, the EC50 (Sb-1; read-out: EC50 Sb-1) was 6 µM and the EC50 (Sb-1; read-out: Sb-1) was 11.5 µM. For the same compound, the “reduction of viral titers” value [5] was “approximately 3.5 log10”, the EC50 (VEE) was 1.3 to 45 µM and the EC50 (REO-1) was 13 µM. For the same compound, the EC50 (Punta Toro A) was greater than 200 µM, the EC50 (Adenovirus type 1) was greater than 200 µM and the “Electron Microscopy, Lipid Droplet Form.” value (HepG2 cells [6]; 10 μM, 14 days) was “Negative”. For the same compound, the “Electron Microscopy, Mito. Morphol.” value (HepG2 cells [6]; 10 μM, 14 days) was “Normal^d”, the “cells in which 1 to 2 mitochondria out of an average of 25 appeared enlarged” value (HepG2 cells [6]; 14 days of exposure to 10 μM) was 17% and the “activity against HIV” value (HIV) was “no activity”. The EC50 (MCMV) was greater than 0.8 µM, the EC50 (Polio Virus Sb-1) was 6 µM and the “mtDNA/nuclear DNA (% of Control)” value (HepG2 cells [7]; 10 μM, 6 day treatment) was 117.3 ± 17.5 % of Control. The “mtDNA/nuclear DNA (% of Control)” value (HepG2 cells [7]; 10 μM, 14 day treatment) was 99.7 ± 23.9 % of Control, the “mtDNA/nuclear DNA (% of Control)” value (HepG2 cells [7]; 50 μM, 6 day treatment) was 158.2 ± 17.5 % of Control and the “mtDNA/nuclear DNA (% of Control)” value (HepG2 cells [7]; 50 μM, 14 day treatment) was 83.0 ± 15.5 % of Control. For the same compound, the “effect on the level of the rig S15 cellular mRNA control” value (BVDV RNA) was “No effect”, the “maximum viral RNA reduction” value (BVDV RNA; highest inhibitor concentration tested (125 μM)) was 4 log10 and the “in vitro stability, deamination to mUrd” value [8] was “remained essentially unchanged”. The “Incorporated drug amount, DNA” value (HepG2 cells [9]) was 0.0013 pmole/μg DNA and 0.0013 ± 0.0008^a pmole/μg DNA, the “Incorporated drug amount, RNA” value (HepG2 cells [9]) was 0.0014 pmole/μg RNA and 0.0014 ± 0.0008^a pmole/μg RNA and the CC50 (HepG2 cells [10]) was 186 ± 28.2 µM. It also gave a CC50 ([11]; Rhinovirus type 2 line, read-out: CC50) greater than 200 µM, a CC50 ([11]; Rhinovirus type 5 line) of 20 to 30 µg/mL and an EC50 (HSV-1) greater than 100 µg/mL. The EC50 (Rhinovirus type 2) was 2 to 10 µM, the “L-Lactate (% of Control)” value (HepG2 cells [12]; 10 μM) was 98.6 ± 7.3 % of Control and the “increase in lactic acid production” value (HepG2 cells [12]; 50 μM) was 38%. For the same compound, the “L-Lactate (% of Control)” value (HepG2 cells [12]; 50 μM) was 138.0 ± 8.9 % of Control, the EC50 (RSV type A) was greater than 200 µM and the “L-Lactate (% of Control)” value (Huh7 cells; 10 μM) was 98.0 ± 12.3 % of Control. For the same compound, the “L-Lactate (% of Control)” value (Huh7 cells; 50 μM) was 97.1 ± 10.1 % of Control, the CC50 [13] was greater than 200 µM and the “reduction of BVDV titer” value ([14]; 4 μM, one cell passage (3 days)) was “approximately 3 log10”. The “reduction of virus production” value ([14]; 8 μM) was 6.2 log10, the virus production ([14]; 16 μM, within two cell passages, from more than 6 logs of virus per ml) was “undetectable levels” and the “in vitro stability, deamination to mUrd” value [15] was “remained essentially unchanged”. For the same compound, the EC50 (Influenza A/H1N1) was greater than 200 µM.

— patent US7625875B2 (priority 2002, dated 2009)
